From US4414216A, “Tetrahydrofuran compounds and analogs thereof” (Yoshitomi Phamaceutical Industries, Ltd., priority 1981, dated 1983)
Read-outs that look alike come from different tables or passages of the source.

Experiments:
[1] = system: Motor activity (apomorphine hydrochloride); assay: Antiapomorphine effect, Experiment 1: motor activity (Automex) after apomorphine; assay type: in vivo, male dd mice; conditions: 30 mg/kg intraperitoneal, 30 min before 0.5 mg/kg s.c. apomorphine hydrochloride, activity during 30 minutes, control 566
Experimental: (§1) Antiapomorphine effect was measured by the following methods.
Motor activity was measured with Automex (Columbus Instruments, U.S.A.) in two groups of 3 male dd mice. Thirty minutes after intraperitoneal administration of each test compound (30 mg/kg), 0.5 mg/kg of apomorphine hydrochloride was injected subcutaneously. Immediately after the apomorphine injection, the animals were placed in the transparent plastic cage (26×42×20 cm) and motor activity during 30 minutes was measured. Student's was calculated to indicate the level of significance of the change from control.

[2] = system: Motor activity (apomorphine hydrochloride); assay: Antiapomorphine effect, Experiment 2: motor activity (Animex) after apomorphine, ED50; assay type: in vivo, male dd mice; conditions: Mus musculus, read-out: ED50 (dose which reduced the motor activity by 50% as compared with control)
Experimental: as §1
Motor activity was measured with Animex (Columbus Instruments, U.S.A.) in three groups of 5 male dd mice. Sixty minutes after oral administration of each test compound, 0.5 mg/kg of apomorphine hydrochloride was injected subcutaneously. The measurement of motor activity during 20 minutes started just after the apomorphine injection. ED50 was determined graphically as the dose which reduced the motor activity by 50% as compared with control.

Row | Structure (SMILES) | Motor Activity [1] | ED50 ([2]; po) | ED50 ([2]; Experiment 2, oral, 60 min before 0.5 mg/kg s.c. apomorphine hydrochloride, activity during 20 minutes)
1 | Fc1ccc(C2CC(CN3CCC(n4c(=S)[nH]c5ccccc54)CC3)CO2)cc1 (stereo not shown) [A] | 1 | 3.2 mg/kg | 
2 | O=c1[nH]c2cc(Cl)ccc2n1C1CCN(CC2CCC(c3ccc(F)cc3)O2)CC1 (stereo not shown) [H] | 5 | 12 mg/kg | 
3 | O=c1[nH]c2cc(Cl)ccc2n1C1CCN(C[C@@H]2CO[C@H](c3ccc(F)cc3)C2)CC1 (relative stereo) [F] | 5 | 2.4 mg/kg | 
4 | O=c1[nH]c2ccccc2n1C1CCN(CC2COC(c3ccc(F)cc3)C2)CC1 (stereo not shown) [B] | 4 | 2.8 mg/kg | 
5 | O=c1[nH]c2cc(Cl)ccc2n1C1CCN(CC2COC(c3ccc(F)cc3)C2)CC1 (stereo not shown) [E] | 23 | 0.4 mg/kg | 
6 | O=c1[nH]c2cc(Cl)ccc2n1C1CCN(C[C@H]2CO[C@H](c3ccc(F)cc3)C2)CC1 (relative stereo) [G] | 8 | 0.9 mg/kg | 
7 | O=C1CCN(C2CCN(CC3COC(c4ccc(F)cc4)C3)CC2)C(=O)N1c1ccccc1 (stereo not shown) [D] | 28 |  | 25 mg/kg
8 | O=C1NCN(c2ccccc2)C12CCN(CC1COC(c3ccc(F)cc3)C1)CC2 (stereo not shown) [C] | 0 | 1.4 mg/kg | 
